Results reported in the supplement of paper PMC12076712.

Columns and labels:
Test in all cases: pIC50, kinobeads binding competition
Conditions in all cases: cell material: Jurkat lysate
UniProt P68400 = molecular target: UniProt P68400
IRAK4 = molecular target: T1, IRAK4 (UniProt Q9NWZ3)
T1 sequence (whole entry): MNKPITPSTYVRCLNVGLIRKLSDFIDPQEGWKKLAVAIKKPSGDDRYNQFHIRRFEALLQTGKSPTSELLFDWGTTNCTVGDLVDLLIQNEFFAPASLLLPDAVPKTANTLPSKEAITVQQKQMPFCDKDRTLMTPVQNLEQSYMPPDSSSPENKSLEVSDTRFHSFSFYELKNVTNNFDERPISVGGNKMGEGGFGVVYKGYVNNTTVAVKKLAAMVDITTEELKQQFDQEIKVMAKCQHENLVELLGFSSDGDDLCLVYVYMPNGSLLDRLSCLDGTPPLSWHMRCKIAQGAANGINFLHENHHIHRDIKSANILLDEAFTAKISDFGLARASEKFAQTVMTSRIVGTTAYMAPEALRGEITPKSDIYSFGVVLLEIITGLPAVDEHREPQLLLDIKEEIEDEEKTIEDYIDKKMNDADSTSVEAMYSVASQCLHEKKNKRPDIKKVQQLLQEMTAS

UniProt P19525 = molecular target: UniProt P19525
UniProt P25098 = molecular target: T2, UniProt P25098
T2 sequence (whole entry): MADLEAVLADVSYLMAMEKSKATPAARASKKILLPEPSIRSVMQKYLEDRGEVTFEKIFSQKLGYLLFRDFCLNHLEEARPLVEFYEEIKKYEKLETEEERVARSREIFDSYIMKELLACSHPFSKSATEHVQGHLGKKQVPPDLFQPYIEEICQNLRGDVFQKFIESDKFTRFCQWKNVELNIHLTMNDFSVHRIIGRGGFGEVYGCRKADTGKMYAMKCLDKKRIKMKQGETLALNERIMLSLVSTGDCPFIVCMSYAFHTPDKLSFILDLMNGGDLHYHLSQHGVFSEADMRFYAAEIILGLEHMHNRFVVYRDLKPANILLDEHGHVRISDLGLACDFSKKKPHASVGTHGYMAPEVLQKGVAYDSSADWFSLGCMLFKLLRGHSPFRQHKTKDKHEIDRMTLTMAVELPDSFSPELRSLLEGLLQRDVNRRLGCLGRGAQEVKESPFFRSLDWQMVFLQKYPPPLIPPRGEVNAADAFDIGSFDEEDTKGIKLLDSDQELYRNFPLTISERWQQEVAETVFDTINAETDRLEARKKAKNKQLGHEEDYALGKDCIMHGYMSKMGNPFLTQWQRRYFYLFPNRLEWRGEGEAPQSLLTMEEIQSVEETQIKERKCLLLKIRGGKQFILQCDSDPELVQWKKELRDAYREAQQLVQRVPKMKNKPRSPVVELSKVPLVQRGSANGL

ARAF = ARAF (UniProt P10398)
UniProt Q9Y2U5 = molecular target: T3, UniProt Q9Y2U5
T3 sequence (whole entry): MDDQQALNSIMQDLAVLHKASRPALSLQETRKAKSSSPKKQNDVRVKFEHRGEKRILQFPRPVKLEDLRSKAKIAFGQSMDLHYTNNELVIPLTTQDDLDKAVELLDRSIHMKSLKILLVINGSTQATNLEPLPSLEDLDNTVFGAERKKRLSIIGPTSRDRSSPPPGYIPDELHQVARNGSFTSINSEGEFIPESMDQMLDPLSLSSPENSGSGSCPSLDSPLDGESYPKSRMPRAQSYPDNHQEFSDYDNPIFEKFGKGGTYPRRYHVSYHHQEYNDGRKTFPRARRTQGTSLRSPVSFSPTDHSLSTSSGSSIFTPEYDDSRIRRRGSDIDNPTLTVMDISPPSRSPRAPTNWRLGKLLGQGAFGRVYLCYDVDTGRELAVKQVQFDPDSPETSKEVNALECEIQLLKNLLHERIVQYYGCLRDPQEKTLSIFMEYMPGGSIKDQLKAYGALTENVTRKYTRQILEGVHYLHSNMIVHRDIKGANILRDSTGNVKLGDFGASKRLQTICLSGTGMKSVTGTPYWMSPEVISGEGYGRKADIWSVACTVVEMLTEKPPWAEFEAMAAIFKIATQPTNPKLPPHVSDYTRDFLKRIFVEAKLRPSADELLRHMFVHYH

UniProt P46734 = molecular target: T4, UniProt P46734
T4 sequence (whole entry): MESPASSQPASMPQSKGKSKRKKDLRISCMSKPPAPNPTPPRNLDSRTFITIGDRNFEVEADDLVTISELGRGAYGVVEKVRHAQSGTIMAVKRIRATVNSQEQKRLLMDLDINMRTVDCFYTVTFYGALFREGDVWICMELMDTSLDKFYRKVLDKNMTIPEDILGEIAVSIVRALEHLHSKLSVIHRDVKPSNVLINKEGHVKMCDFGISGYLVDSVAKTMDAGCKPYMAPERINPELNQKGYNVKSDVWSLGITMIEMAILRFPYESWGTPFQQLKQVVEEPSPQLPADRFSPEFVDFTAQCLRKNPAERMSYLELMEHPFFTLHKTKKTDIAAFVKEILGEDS

UniProt Q8NEB9 = molecular target: UniProt Q8NEB9
UniProt O43318 = molecular target: T5, UniProt O43318
T5 sequence (whole entry): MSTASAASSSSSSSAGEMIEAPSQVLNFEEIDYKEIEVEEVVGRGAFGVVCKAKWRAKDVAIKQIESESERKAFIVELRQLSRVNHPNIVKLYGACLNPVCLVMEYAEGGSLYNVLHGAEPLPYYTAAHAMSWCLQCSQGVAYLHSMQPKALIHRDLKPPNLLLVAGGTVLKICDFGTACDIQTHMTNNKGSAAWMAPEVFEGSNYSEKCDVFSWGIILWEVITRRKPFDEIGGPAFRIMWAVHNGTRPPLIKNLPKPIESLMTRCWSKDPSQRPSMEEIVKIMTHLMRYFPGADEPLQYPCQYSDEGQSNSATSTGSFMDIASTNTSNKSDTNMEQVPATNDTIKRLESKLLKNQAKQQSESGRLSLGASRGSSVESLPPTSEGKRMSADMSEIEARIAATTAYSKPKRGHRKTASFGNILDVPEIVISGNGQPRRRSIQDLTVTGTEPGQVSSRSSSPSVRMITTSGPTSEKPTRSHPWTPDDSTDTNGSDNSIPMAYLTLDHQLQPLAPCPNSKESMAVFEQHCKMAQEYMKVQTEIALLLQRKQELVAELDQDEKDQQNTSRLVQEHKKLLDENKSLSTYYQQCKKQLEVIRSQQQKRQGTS

Measured: pIC50

Sequence of UniProt Q8NEB9 (Q8NEB9 whole entry): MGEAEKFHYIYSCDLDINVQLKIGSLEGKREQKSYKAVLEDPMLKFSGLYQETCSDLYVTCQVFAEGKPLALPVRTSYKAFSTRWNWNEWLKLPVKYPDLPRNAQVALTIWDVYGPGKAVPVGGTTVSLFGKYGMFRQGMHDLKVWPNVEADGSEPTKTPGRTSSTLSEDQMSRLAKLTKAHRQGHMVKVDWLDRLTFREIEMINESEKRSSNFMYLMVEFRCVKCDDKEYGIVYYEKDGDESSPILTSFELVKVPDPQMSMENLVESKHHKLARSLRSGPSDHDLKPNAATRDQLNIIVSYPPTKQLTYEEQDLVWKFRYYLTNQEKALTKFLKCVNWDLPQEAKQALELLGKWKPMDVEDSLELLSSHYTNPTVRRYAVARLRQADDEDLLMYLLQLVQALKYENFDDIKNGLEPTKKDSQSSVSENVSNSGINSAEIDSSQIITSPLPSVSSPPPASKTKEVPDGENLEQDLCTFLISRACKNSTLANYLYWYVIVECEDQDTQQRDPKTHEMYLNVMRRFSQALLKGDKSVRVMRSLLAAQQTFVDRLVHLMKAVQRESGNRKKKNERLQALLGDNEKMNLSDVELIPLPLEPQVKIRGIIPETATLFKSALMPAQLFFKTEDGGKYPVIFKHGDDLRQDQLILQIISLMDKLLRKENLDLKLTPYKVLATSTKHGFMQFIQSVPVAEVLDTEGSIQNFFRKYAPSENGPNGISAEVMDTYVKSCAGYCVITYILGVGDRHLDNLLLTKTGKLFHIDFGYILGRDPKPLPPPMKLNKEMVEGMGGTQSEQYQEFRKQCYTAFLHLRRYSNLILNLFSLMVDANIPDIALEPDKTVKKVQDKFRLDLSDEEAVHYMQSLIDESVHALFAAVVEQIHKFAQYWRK
Sequence of UniProt P68400 (P68400 whole entry, looked up): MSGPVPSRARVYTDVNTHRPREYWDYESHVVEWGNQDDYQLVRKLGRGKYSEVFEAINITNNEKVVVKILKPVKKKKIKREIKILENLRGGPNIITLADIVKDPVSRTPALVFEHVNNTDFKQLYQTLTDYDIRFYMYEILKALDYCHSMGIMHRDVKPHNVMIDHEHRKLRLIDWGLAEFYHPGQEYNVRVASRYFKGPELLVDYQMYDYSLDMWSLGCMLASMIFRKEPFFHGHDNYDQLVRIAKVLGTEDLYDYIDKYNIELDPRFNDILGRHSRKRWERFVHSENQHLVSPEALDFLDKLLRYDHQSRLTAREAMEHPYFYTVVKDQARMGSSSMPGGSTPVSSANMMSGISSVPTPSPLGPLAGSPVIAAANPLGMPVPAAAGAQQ
Sequence of ARAF (P10398 whole entry): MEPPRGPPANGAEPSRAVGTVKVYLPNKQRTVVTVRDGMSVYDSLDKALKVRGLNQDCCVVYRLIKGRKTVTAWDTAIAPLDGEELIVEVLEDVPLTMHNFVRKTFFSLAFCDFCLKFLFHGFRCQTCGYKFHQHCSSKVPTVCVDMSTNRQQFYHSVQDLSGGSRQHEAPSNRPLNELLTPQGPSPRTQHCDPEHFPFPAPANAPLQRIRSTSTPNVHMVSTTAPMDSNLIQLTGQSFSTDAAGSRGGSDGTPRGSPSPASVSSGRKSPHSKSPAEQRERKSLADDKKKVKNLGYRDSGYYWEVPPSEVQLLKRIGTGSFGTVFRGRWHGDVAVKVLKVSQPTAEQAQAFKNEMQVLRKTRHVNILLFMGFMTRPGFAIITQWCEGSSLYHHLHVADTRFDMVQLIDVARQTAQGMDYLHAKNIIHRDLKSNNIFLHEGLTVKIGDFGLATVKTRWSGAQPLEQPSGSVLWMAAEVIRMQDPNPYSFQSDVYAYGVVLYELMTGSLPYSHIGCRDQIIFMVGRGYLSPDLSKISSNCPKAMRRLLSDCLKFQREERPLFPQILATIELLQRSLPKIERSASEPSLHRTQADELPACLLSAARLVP
Sequence of UniProt P19525 (P19525 whole entry): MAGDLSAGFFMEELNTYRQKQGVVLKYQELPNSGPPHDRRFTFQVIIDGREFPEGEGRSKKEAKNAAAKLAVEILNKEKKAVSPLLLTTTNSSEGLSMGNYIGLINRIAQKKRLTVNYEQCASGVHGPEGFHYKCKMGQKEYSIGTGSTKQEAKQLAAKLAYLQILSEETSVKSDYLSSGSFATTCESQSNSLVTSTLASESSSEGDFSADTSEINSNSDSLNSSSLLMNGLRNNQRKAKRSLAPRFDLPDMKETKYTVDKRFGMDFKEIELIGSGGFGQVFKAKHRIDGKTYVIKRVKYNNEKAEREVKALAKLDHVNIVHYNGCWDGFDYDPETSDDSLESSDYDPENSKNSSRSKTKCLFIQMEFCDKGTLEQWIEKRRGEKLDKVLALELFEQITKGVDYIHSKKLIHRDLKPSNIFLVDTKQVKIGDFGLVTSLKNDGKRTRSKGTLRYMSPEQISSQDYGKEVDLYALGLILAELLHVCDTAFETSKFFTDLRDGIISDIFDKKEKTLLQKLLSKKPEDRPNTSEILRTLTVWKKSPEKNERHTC

CCc1cnn2c(NCc3ccc[n+]([O-])c3)cc(N3CCCC[C@H]3CCO)nc12 [dinaciclib]
< 4.52: all assays above
